Assay results reported in patent publication US20210177803A1, “NEW PHARMACEUTICAL USE FOR THE TREATMENT OF HEART FAILURE” (Novartis AG, priority 2018, published 2021).
Read-outs that look alike come from different tables or passages of the source.

Tested on: patients with HFrEF following hemodynamic stabilization after an episode of ADHF
Details: for Patients with ≥1 AE: full analysis set
[1] = post-discharge, N = 496, 10-week treatment epoch
[2] = post-discharge, N = 496, 10-week treatment period
[3] = pre-discharge, N = 497, 10-week treatment epoch
[4] = pre-discharge, N = 497, 10-week treatment period
[5] = previous diagnosis of HFrEF (N = 705)
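Note: adverse events recorded in patients during the 10-week treatment phase following randomization.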

What does the source list for `CCCCC(=O)N(Cc1ccc(-c2ccccc2-c2nn[n-]n2)cc1)[C@H](C(=O)[O-])C(C)C.CCOC(=O)[C@H](C)C[C@@H](Cc1ccc(-c2ccccc2)cc1)NC(=O)CCC(=O)[O-].[Na+].[Na+].[Na+]` [LCZ696, trisodium [3((1S,3R)-1-biphenyl-4-ylmethyl-3-ethoxycarbonyl-1-butylcarbamoyl) propionate-(S)-3′-methyl-2′-(pentanoyl{2″-(tetrazol-5-ylate)biphenyl-4′-ylmethyl}amino)butyrate]hemipentahydrate]?
Serious adverse event: Non-cardiac chest pain (post-discharge, N = 496): 3 (0.6) n (%); Serious adverse event: Pneumonia (post-discharge, N = 496): 3 (0.6) n (%); Serious adverse event: Pulmonary edema (post-discharge, N = 496): 2 (0.4) n (%); Serious adverse event: Renal failure (post-discharge, N = 496): 1 (0.2) n (%); Serious adverse event: Respiratory tract infection (post-discharge, N = 496): 3 (0.6) n (%); Serious adverse event: Ventricular tachycardia (post-discharge, N = 496): 0 (0.0) n (%); Temporary treatment interruption due to AEs (post-discharge, N = 496): 55 (11.1) n (%); Temporary treatment interruption due to SAEs (post-discharge, N = 496): 18 (3.6) n (%); Temporary treatment interruption due to non-SAEs (post-discharge, N = 496): 42 (8.5) n (%); Adverse event: Cardiac failure [1]: 42 (8.5) n (%); Adverse event: Diarrhea [1]: 23 (4.6) n (%); Adverse event: Dizziness [1]: 21 (4.2) n (%); Adverse event: Hyperkalemia [1]: 56 (11.3) n (%); Adverse event: Hypotension [1]: 45 (9.1) n (%); Adverse event: Peripheral edema [1]: 24 (4.8) n (%); Adverse event: Renal impairment [1]: 15 (3.0) n (%); Adverse event: Urinary tract infection [1]: 15 (3.0) n (%); Deaths [2]: 10 (2.0) n (%); Patients with ≥ SAE / at least one SAE [2]: 88 (17.7) n (%); Patients with ≥1 AE [2]: 323 (65.1) n (%); Permanent treatment discontinuation due to AEs (post-discharge, N = 496, full analysis set): 20 (4.0) n (%); RRR, permanent discontinuation due to AEs (pre- vs post-discharge): 1.287; Mortality, patients who died (pre-discharge arm): 2.6%; AE cardiac failure, patients (pre-discharge group): 6.8%; AE dizziness, patients (pre-discharge group): 5.6%; AE hyperkalemia, patients (pre-discharge group): 11.1%; AE hypotension, patients (pre-discharge group): 12.3%; Patients with SAEs (pre-discharge group): 18.9%; SAE acute kidney injury, patients (pre-discharge group): 1.2%; SAE cardiac failure, patients (pre-discharge group): 7.0%; Permanent treatment discontinuation due to SAEs (pre-discharge, N = 497): 15 (3.0) n (%); Permanent treatment discontinuation due to non-SAEs (pre-discharge, N = 497): 8 (1.6) n (%); Serious adverse event: Acute kidney injury (pre-discharge, N = 497): 6(1.2) n (%); Serious adverse event: Atrial fibrillation (pre-discharge, N = 497): 3 (0.6) n (%); Serious adverse event: Cardiac failure(acute/chronic) (pre-discharge, N = 497): 35 (7.0) n (%); Serious adverse event: Chronic obstructive pulmonary disease (pre-discharge, N = 497): 0 (0.0) n (%); Serious adverse event: Hyperkalemia (pre-discharge, N = 497): 3 (0.6) n (%); Serious adverse event: Hypotension (pre-discharge, N = 497): 4 (0.8) n (%); Serious adverse event: Non-cardiac chest pain (pre-discharge, N = 497): 0 (0.0) n (%); Serious adverse event: Pneumonia (pre-discharge, N = 497): 4 (0.8) n (%); Serious adverse event: Pulmonary edema (pre-discharge, N = 497): 3 (0.6) n (%); Serious adverse event: Renal failure (pre-discharge, N = 497): 3 (0.6) n (%); Serious adverse event: Respiratory tract infection (pre-discharge, N = 497): 0 (0.0) n (%); Serious adverse event: Ventricular tachycardia (pre-discharge, N = 497): 3 (0.6) n (%); Temporary treatment interruption due to AEs (pre-discharge, N = 497): 70 (14.1) n (%); Temporary treatment interruption due to SAEs (pre-discharge, N = 497): 21 (4.2) n (%); Temporary treatment interruption due to non-SAEs (pre-discharge, N = 497): 54 (10.9) n (%); Adverse event: Cardiac failure [3]: 34 (6.8) n (%); Adverse event: Diarrhea [3]: 12 (2.4) n (%); Adverse event: Dizziness [3]: 28 (5.6) n (%); Adverse event: Hyperkalemia [3]: 55 (11.1) n (%); Adverse event: Hypotension [3]: 61(12.3) n (%); Adverse event: Peripheral edema [3]: 17 (3.4) n (%); Adverse event: Renal impairment [3]: 25 (5.0) n (%); Adverse event: Urinary tract infection [3]: 20 (4.0) n (%); Deaths [4]: 13 (2.6) n (%); Patients with ≥ SAE / at least one SAE [4]: 94 (18.9) n (%); Patients with ≥1 AE [4]: 338 (68.0) n (%); Permanent treatment discontinuation due to AEs (pre-discharge, N = 497, full analysis set): 22 (4.4) n (%); AE of interest: Blood creatinine increased [5]: 26 (3.7) n (%); AE of interest: Cardiac failure [5]: 58 (8.2) n (%); AE of interest: Hyperkalemia [5]: 85 (12.1) n (%); AE of interest: Hypotension [5]: 108 (10.9) n (%); AE of interest: Renal failure [5]: 16 (2.3) n (%); AE of interest: Renal impairment [5]: 32 (4.5) n (%); At least one AE [5]: 478 (67.8) n (%); At least one serious AE [5]: 130 (18.4) n (%); Death [5]: 5 (0.7) n (%); Treatment interruption due to AE [5]: 87 (12.3) n (%)
